Test results: patent publication EP4631931A1, “HDAC INHIBITOR AND USE THEREOF” (Wigen Biomedicine Technology (Shanghai) Co., Ltd., priority 2022, dated 2024)

Experiments:
Jurkat cell = assay: Inhibition of Jurkat cell proliferation (CTG, intracellular ATP); assay type: cell-based; details: Homo sapiens, 72 h, compared to DMSO group, read-out: Inhibitory activity against Jurkat cell proliferation (IC50)
Protocol: (§1) Jurkat or 293T cells were seeded into a 96-well plate at 3000 cells/well. After overnight adherence culture, the serially diluted compound in DMSO was added. After 72 h, the intracellular ATP level was determined by CTG. The IC50 for the inhibition of cell proliferation by the compounds was calculated compared to the DMSO group. Table 8. Inhibitory activity of compounds of the present disclosure against Jurkat/293T cell proliferation (IC50, µM)

293T cell = assay: Inhibition of 293T cell proliferation (CTG, intracellular ATP); assay type: cell-based; details: Homo sapiens, HEK-293T, 72 h, compared to DMSO group, read-out: Inhibitory activity against 293T cell proliferation (IC50)
Protocol: as §1

HeLa cells = assay: Intracellular acetyl lysine / H3K 27 acetyl lysine level by ELISA; assay type: cell-based; details: 24 h of treatment
Protocol: HeLa cells were seeded into a 96-well plate at 20000 cells/well. After overnight adherence culture, the serially diluted compound was added. After 24 h of treatment, intracellular levels of acetyl lysine and H3K 27 acetyl lysine were quantified by ELISA. Table 9. Effect of compound of the present disclosure on levels of acetyl lysine and H3K 27 acetyl lysine

OVCAR 3 cells = assay: NK cell-mediated tumor cell killing (NK92 cells, GFP count); assay type: cell-based; details: Homo sapiens, 72 h compound, 1-4 h co-culture, compared to DMSO group, read-out: EC50 in promoting the NK92 cell-mediated OVCAR 3 cell death
Protocol: OVCAR 3 cells […] expressing GFP were seeded into a 96-well plate at 4000 cells/well. After overnight adherence culture, the serially diluted compounds were added, and the plate was incubated for another 72 h. After the two types of cells were mixed and cultured for another 1-4 h, NK92 cells were removed by washing with PBS, and adherent GFP-positive tumor cells were counted. The EC50 of the compounds in promoting the NK92 cell-mediated OVCAR 3 cell death was calculated compared to the DMSO group. Table 11. NK cell-mediated tumor cell killing by compounds of the present disclosure

[1] = Pharmacokinetic experiment in mice; assay type: in vivo, CD-1 female mice; details: female, CD-1, mouse, plasma; for Vd: read-out: Vdss
Protocol: CD-1 female mice aged 7 to 10 weeks were intravenously administered and orally administered at doses of 1 mg/kg and 10 mg/kg, respectively. The mice were fasted for at least 12 h before the administration and given food 4 h after the administration, and they were given ad libitum access to water during the experiment.
On the day of the experiment, animals in the intravenous group were given the corresponding compound by single injection via the tail vein at an administration volume of 10 mL/kg; and animals in the oral group were given the corresponding compound by single intragastric injection at an administration volume of 10 mL/kg. The animals were weighed before administration, and the administration volume was calculated according to the body weight. The sample collection time points were 0.083 h, 0.167 h, 0.5 h, 1 h, 2 h, 4 h, 8 h, and 24 h. About 200 µL of whole blood was collected through the orbital venous plexus at each time point and used to prepare plasma for concentration determination by high-performance liquid chromatography-tandem mass spectrometry (LC-MS/MS). The plasma concentrations were processed using a non-compartmental model of Winnolin pharmacokinetic software, and the pharmacokinetic parameters were calculated using a linear-log trapezoidal method. Table 13. Results of in vivo pharmacokinetic evaluation of compounds of the present disclosure

[2] = test system: Mouse colon cancer MC38 cells; assay: In vivo efficacy in MC-38 model; design: species or system C57BL6N mice; details: small molecules 15mg/kg PO QD, PD-1 1mg/kg IV QW, BDO 2mg/kg IP QW, 21 days
Protocol: (§2) Female C57BL6N mice (aged 6 weeks, 18-22 g) were provided by Vital River Laboratory Animal Technology Co., Ltd. (China) and used one week after quarantine and acclimation. All animals were kept in a room at 23±2 °C with a relative humidity of 50±5%, artificial lighting was provided from 08:00 to 20:00 every day, and the air was exchanged 13-18 times per hour. Mouse colon cancer MC38 cells were cultured conventionally in 1640 medium containing 10% fetal bovine serum in an incubator at 37 °C with 5% CO2. After being subcultured, the cells were collected when they reached the desired amount. The C57BL6N mice were subcutaneously injected with 2 × 10^6 MC38 cells on the right side to form tumors. After the tumors grew to about 100 mm^3, the animals were randomly grouped for administration. Tumor volumes were measured with a caliper on day 3, day 7, day 10, day 14, day 17, and day 21 after the administration. […] The toxicity of the compounds was evaluated according to the body weight and state of the mice.
Table 15. In vivo efficacy of some of the compounds of the present disclosure in MC-38 model

[3] = test system: Mouse colon cancer CT-26 cells; assay: In vivo efficacy in CT-26 model; design: species or system BALB/c mice; details: small molecules 15mg/kg PO QD, PD-1 1mg/kg IV QW, BDO 2mg/kg IP QW, 21 days
Protocol: as §2, with “BALB/c” for “C57BL6N”, “CT-26” for “MC38”, “10^5 CT-26” for “10^6 MC38”
Table 16. In vivo efficacy of some of the compounds of the present disclosure in CT-26 model

[4] = Stability in liver microsomes; assay type: in vitro ADME; details: 1 µM compound, NADPH, 37 °C
Protocol: After the 1 µM compound was incubated with 0.5 mg/mL of human or mouse liver microsomes and an NADPH regeneration system at 37 °C for different times, respectively, LC-MS-MS was used to analyze the remaining amount of the compound and calculate T1/2. Table 12. Evaluation results of stability of compounds of the present disclosure in human and mouse liver microsomes

[5] = Injection (1 mg/kg), intravenous
[6] = Human liver microsomes 0.5 mg/mL
[7] = Mouse liver microsomes 0.5 mg/mL

SMILES | IC50 (Jurkat cell) | AUC(0-t) [1, 5] | clearance [1, 5] | half-life [1, 5] | Vd [1, 5] | AUC(0-t) ([1]; Oral administration (10 mg/kg)) | Cmax ([1]; Oral administration (10 mg/kg)) | Tmax ([1]; Oral administration (10 mg/kg)) | bioavailability ([1]; Oral administration (10 mg/kg)) | half-life ([1]; Oral administration (10 mg/kg)) | CLint scaled at 1 µM [4, 6] | Clliver [4, 6] | half-life at 1 µM [4, 6] | CLint scaled at 1 µM [4, 7] | Clliver [4, 7] | half-life at 1 µM [4, 7] | IC50 (293T cell) | Acetyl lysine Maximum (%) (HeLa cells) | Acetyl lysine Minimum effective concentration (HeLa cells) | H3K 27 Acetyl lysine Maximum (%) (HeLa cells) | also measured
[2H]c1cc(NC(=O)c2ccc(CNC(=O)/C=C/c3cccnc3)cc2)c(N)cc1F [Compound 1, (E)-N-(2-amino-4-fluorophenyl-5-d)-4-((3-(pyridin-3-yl)acrylamido)methyl)benzamide] | 860 nM | 401 ng·h/mL | 41.5 mL/min/kg | 145 min | 2.19 L/kg | 1890 ng·h/mL | 3450 ng/mL | 4.8 min | 45.3% | 166 min | – | – | – | – | – | – | > 10 µM | 430% | 16 nM | 360% | H3K 27 Acetyl lysine Minimum effective concentration (HeLa cells): 80 nM; EC50 (OVCAR 3 cells): 43.9 nM; Change in body weight [2]: +17.6%; TGI(%) ([2]; 6 mice per group): 35.7%; Change in body weight [3]: +17.6%; TGI(%) ([3]; 6 mice per group): 35.7%
[2H]c1c(F)ccc(NC(=O)c2ccc(CNC(=O)/C=C/c3cccnc3)cc2)c1N [Compound 2] | 1680 nM | 441 ng·h/mL | 37.8 mL/min/kg | 138 min | 1.61 L/kg | 2160 ng·h/mL | 2360 ng/mL | 4.8 min | 46.5% | 111 min | – | – | – | – | – | – | > 10 µM | 420% | 16 nM | 360% | H3K 27 Acetyl lysine Minimum effective concentration (HeLa cells): 80 nM
[2H]c1cc(F)cc(N)c1NC(=O)c1ccc(CNC(=O)/C=C/c2cccnc2)cc1 [Compound 3] | 1860 nM | 592 ng·h/mL | 28.1 mL/min/kg | 167 min | 0.93 L/kg | 1770 ng·h/mL | 2350 ng/mL | 4.8 min | 26.3% | 133 min | – | – | – | – | – | – | 7.5 µM | – | – | – | –
[2H]c1cc(CNC(=O)/C=C/c2cccnc2)ccc1C(=O)Nc1ccc(F)cc1N [Compound 4] | 1700 nM | 602 ng·h/mL | 27.7 mL/min/kg | 183 min | 1.32 L/kg | 1710 ng·h/mL | 1740 ng/mL | 4.8 min | 28.5% | 234 min | 19.5 mL/min/kg | 10.03 mL/min/kg | 89.3 min | 244 mL/min/kg | 65.74 mL/min/kg | 22.4 min | 3.26 µM | – | – | – | –

The next lines start with results.

IC50 (Jurkat cell) | AUC(0-t) [1, 5] | clearance [1, 5] | half-life [1, 5] | Vd [1, 5] | AUC(0-t) ([1]; Oral administration (10 mg/kg)) | Cmax ([1]; Oral administration (10 mg/kg)) | Tmax ([1]; Oral administration (10 mg/kg)) | bioavailability ([1]; Oral administration (10 mg/kg)) | half-life ([1]; Oral administration (10 mg/kg)) | CLint scaled at 1 µM [4, 6] | Clliver [4, 6] | half-life at 1 µM [4, 6] | CLint scaled at 1 µM [4, 7] | Clliver [4, 7] | half-life at 1 µM [4, 7] | SMILES | IC50 (293T cell) | Acetyl lysine Maximum (%) (HeLa cells) | Acetyl lysine Minimum effective concentration (HeLa cells) | H3K 27 Acetyl lysine Maximum (%) (HeLa cells) | also measured
1580 nM | 903 ng·h/mL | 36.9 mL/min/kg | 60.6 min | 1.21 L/kg | 1430 ng·h/mL | 824 ng/mL | 4.8 min | 29.6% | 112 min | 18.4 mL/min/kg | 9.73 mL/min/kg | 94.7 min | 285 mL/min/kg | 68.41 mL/min/kg | 19.1 min | [2H]/C(=C\C(=O)NCc1ccc(C(=O)Nc2ccc(F)cc2N)cc1)c1cccnc1 [Compound 8] | 4.01 µM | – | – | – | –
1080 nM | 1000 ng·h/mL | 16.6 mL/min/kg | 88.8 min | 0.44 L/kg | 1050 ng·h/mL | 1640 ng/mL | 10.2 min | 10.5% | 72.6 min | 4.59 mL/min/kg | 3.75 mL/min/kg | 379 min | 118 mL/min/kg | 50.99 mL/min/kg | 46.4 min | [2H]c1ncccc1/C=C/C(=O)NCc1ccc(C(=O)Nc2ccc(F)cc2N)cc1 [Compound 9] | 5.18 µM | – | – | – | –
950 nM | 733 ng·h/mL | 22.7 mL/min/kg | 107 min | 0.62 L/kg | 1330 ng·h/mL | 2370 ng/mL | 4.8 min | 18.2% | 71.4 min | 23.7 mL/min/kg | 11.04 mL/min/kg | 73.4 min | 231 mL/min/kg | 64.76 mL/min/kg | 23.6 min | [2H]c1cncc(/C=C/C(=O)NCc2ccc(C(=O)Nc3ccc(F)cc3N)cc2)c1 [Compound 11] | 5.16 µM | 450% | 80 nM | 460% | H3K 27 Acetyl lysine Minimum effective concentration (HeLa cells): 80 nM
1590 nM | 514 ng·h/mL | 32.4 mL/min/kg | 70.2 min | 0.71 L/kg | 1610 ng·h/mL | 2080 ng/mL | 10.2 min | 30.5% | 116 min | 2.87 mL/min/kg | 2.52 mL/min/kg | 605 min | 108 mL/min/kg | 49.05 mL/min/kg | 50.6 min | [2H]c1ccc(/C=C/C(=O)NCc2ccc(C(=O)Nc3ccc(F)cc3N)cc2)cn1 [Compound 12] | 5.31 µM | – | – | – | –
